Data from US20240124510A1, “Cyclic Glycoaminoacid Derivatives” (TFCHEM, priority 2021, published 2024).
Several values for one entry are separate records, joined by “and”; a condition that tells them apart may be missing. Equal values may be shown once.

What was measured:
[1] = system: human preadipocytes; assay: Cytotoxicity (LDH release) on preadipocytes in inflammatory condition (AcMC); type: cell-based; details: for Cytotoxicity at the end of the culture, normalized by cell number, Values: single replicates
Protocol: (§1) Preadipocytes have been isolated from human female hypodermis (body mass index <30 kg/m2 and <45 years old). Preadipocytes have been cultured for 24 h in 100 μl of DMEM-10% Fetal Bovine Serum (FBS) in 96-well plates. Then cells were treated to induce their differentiation in a classical or an inflammatory environment for 13 days.
(§2) To induce the preadipocytes differentiation cells were incubated in a proadipogenic cocktail (PAC) including insulin, glucocorticoid, 3-isobutyl-1-methylxanthine (IBMX), and thiazolinedione in DMEM.
(§3) To induce a fibro-inflammatory environment, cells were treated with an activated human macrophage-conditioned medium (AcMC) prepared in RPMI medium. A treatment with Dexamethasone (DXM) at 100 nM was used as anti-inflammatory response control. At D0: preadipocytes have been treated in the following conditions: • “Undifferentiation”: DMEM+¼ RPMI medium • “Differentiation”: PAC+¼ RPMI medium • “AcMC” i.e. inflammatory condition: PAC+¼ AcMC • “AcMC+DXM”: PAC+[…] AcMC+anti-inflammatory DXM at 100 nM • “AcMc+compounds”: PAC+14 AcMC+compounds to be tested
(§4) All conditions have been performed in triplicate. The medium has been changed every 2 days for 13 days.
At D14: during the last 24 h of culture, the medium has been replaced by DMEM/F12 medium in all conditions, to collect cells' secretions.
Cytotoxicity was assessed by the measurement of the lactate dehydrogenase (LDH) released by damaged cells in the culture medium (using the kit CytoTox-One Non-Radioactive Cytotoxicity Assay, G1780, Promega). Cells were treated with 0.2% of triton at the end of the culture to determine the maximal toxicity response. The LDH measurement was realized on 24 h medium secretions after 13 days of culture.
The results were normalized by cell number, determined by nuclei staining (with DAPI: 4′,6-Diamidino-2-Phenylindole, Dihydrochloride), and were represented in percentage of the lysis positive control. Compounds presenting a level of cytotoxicity below 20% compared to control were considered as non-toxic.
Quantity of LDH measured in medium was normalized by cell number in each culture condition. Data are represented in percentage of proinflammatory control conditions (AcMC condition).

[2] = system: human preadipocytes; assay: Proliferation of preadipocytes in inflammatory condition (DAPI nuclei staining); type: cell-based; details: for Cells number at the end of the culture (DAPI staining), Values: individual values; for Cell number (DAPI staining): preadipocytes, inflammatory conditions (AcMC), AcMC control 12 819 AU
Protocol: as §1, §2, §3, §4
The number of cells was determined for each condition by DAPI nuclei staining (nuclei) and expressed in arbitrary unit.

[3] = system: human preadipocytes; assay: Lipid index (AdipoRed area*intensity, imaging) in preadipocytes in inflammatory condition; type: cell-based; details: for Lipid Index (Adipored area * intensity), Mean / Lipid Index (Adipored area * intensity), Values: normalized by cells number (DAPI); for Lipid Index (Adipored area * intensity), Values: individual values
Protocol: as §1, §2, §3, §4
A second analysis of lipid accumulation was performed with an imaging acquisition and quantification. The area and the intensity of the lipid droplets were evaluated and quantified for more accurate data. An index was calculated (area*intensity of the AdipoRed staining) and normalized by cells number.
Lipid accumulation and Lipid index were evaluated for each condition. Data are represented in percentage of proinflammatory control condition (AcMC condition).

[4] = system: Collagen I fibers; assay: Quantity of Collagen 1 fibers produced by preadipocytes in inflammatory condition (immunofluorescence); type: cell-based, human; details: for Collagen I fibers quantity, Mean (%) / Collagen I fibers quantity, Values (%): inflammatory condition, normalized by cells number (Dapi); for Collagen I fibers quantity, Values (%): individual values; for Collagen I fibers quantity compared to the AcMC control condition fixed at 100%: preadipocytes
Protocol: as §1, §2, §3
One month after fixation of preadipocytes cultivated in pro-inflammatory environment, cells were incubated with 3% Bovine Serum Albumin (BSA) for 30 min in order to block the non-specific sites, then with primary antibody anti-collagen 1 (Novusbio, NB600-408) over-night. After washes with PBS, cells were incubated for 30 min with 3% BSA and then with the secondary antibodies (Goat anti-rabbit alexa-fluor 488, ThermoFisher, A11008) and DAPI (for nuclei staining) for 1 h. After several washes, the acquisition and the quantification were performed with a fluorescent video-microscope. Briefly, the quantification was based on the detection and quantification of cell nuclei stained with DAPI, and the detection of collagen 1 staining. Collagen 1 fibers were detected and measured for their length, thickness and intensity. A Collagen 1 fibers quantity was calculated (Quantity=length*thickness*fluorescence intensity) and normalized by cells number (DAPI staining).
Collagen I fibers (fibrillar collagen I) quantity was quantified and the data were normalized by cell number (DAPI staining, quantification of nuclei number). Data are represented in percentage of proinflammatory control conditions (AcMC condition).

## N[C@H]1CCCN(CC(F)(F)[C@]2(O)O[C@H](CO)[C@H](O)[C@H](O)[C@H]2O)C1=O [Compound 6]
[1]; AcMC + 1 mg/ml
  Cytotoxicity at the end of the culture, normalized by cell number, Mean: 81.7 % of AcMC condition
  Cytotoxicity at the end of the culture, normalized by cell number, Values: 53.1 % of AcMC condition and 81.8 % of AcMC condition and 110.4 % of AcMC condition
[1]; AcMC + 2 mg/ml
  Cytotoxicity at the end of the culture, normalized by cell number, Mean: 53.3 % of AcMC condition
  Cytotoxicity at the end of the culture, normalized by cell number, Values: 50.5 % of AcMC condition and 50.6 % of AcMC condition and 58.9 % of AcMC condition
[2]; AcMC + 1 mg/ml
  Cells number at the end of the culture, DAPI staining, Mean: 18154 AU
  Cells number at the end of the culture (DAPI staining), Values: 18502 AU and 17976 AU and 17985 AU
[2]; AcMC + 2 mg/ml
  Cells number at the end of the culture, DAPI staining, Mean: 20147 AU
  Cells number at the end of the culture (DAPI staining), Values: 20261 AU and 20369 AU and 19811 AU
[2]; 1 mg/ml
  Cell number (DAPI staining): 18 154 AU
[2]; 2 mg/ml
  Cell number (DAPI staining): 20 147 AU
[3]; AcMC + 1 mg/ml
  Lipid Index (Adipored area * intensity), Mean: 158.6 % of AcMC condition
  Lipid Index (Adipored area * intensity), Values: 150.8 % of AcMC condition and 156.6 % of AcMC condition and 168.4 % of AcMC condition
[3]; AcMC + 2 mg/ml
  Lipid Index (Adipored area * intensity), Mean: 297.9 % of AcMC condition
  Lipid Index (Adipored area * intensity), Values: 286.0 % of AcMC condition and 338.7 % of AcMC condition and 269.0 % of AcMC condition
[3]; both concentration, inflammatory media
  Lipid index compared to AcMC control: increased
[4]; 1 mg/ml
  Collagen I fibers quantity, Mean (%): 154 % of AcMC condition
  Collagen I fibers quantity, Values (%): 136.7 % of AcMC condition and 160.5 % of AcMC condition and 165.3 % of AcMC condition
  Collagen I fibers quantity compared to the AcMC control condition fixed at 100%: 154%
[4]; 2 mg/ml
  Collagen I fibers quantity, Mean (%): 213 % of AcMC condition
  Collagen I fibers quantity, Values (%): 193.5 % of AcMC condition and 230.7 % of AcMC condition and 213.7 % of AcMC condition
  Collagen I fibers quantity compared to the AcMC control condition fixed at 100%: 213%
